Source: the supplement of paper PMC10307832

What was measured:
Experiment in all cases: relative viability (nuclei count vs DMSO), 5 days (fraction); higher = more cells survive
Selisistat + Olaparib = compound: C1CC(C2=C(C1)C3=C(N2)C=CC(=C3)Cl)C(=O)N [Selisistat] + O=C(c1cc(Cc2n[nH]c(=O)c3ccccc23)ccc1F)N1CCN(C(=O)C2CC2)CC1 [Olaparib] (partner 8 µM)
Method in brief: (§1)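 Relative viability is defined as nuclei in treated wells over nuclei in vehicle wells. Duplicate plates were run and medians reported. Lung cancer cell lines in 1536-well plates were dosed by pin tool one day after seeding, with one drug or with a fixed anchor-drug dose plus five library-drug doses (not always all listed) in √10 steps, and nuclei were counted after 5 days.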

Serdemetan + Trametinib = compound: c1ccc2c(CCNc3ccc(Nc4ccncc4)cc3)c[nH]c2c1 [Serdemetan] + CC(=O)Nc1cccc(-n2c(=O)n(C3CC3)c(=O)c3c(Nc4ccc(I)cc4F)n(C)c(=O)c(C)c32)c1 [Trametinib] (partner 0.02 µM)
Method in brief: as §1

Serdemetan + Crizotinib = compound: c1ccc2c(CCNc3ccc(Nc4ccncc4)cc3)c[nH]c2c1 [Serdemetan] + C[C@@H](Oc1cc(-c2cnn(C3CCNCC3)c2)cnc1N)c1c(Cl)ccc(F)c1Cl [Crizotinib] (partner 1 µM)
Method in brief: as §1

Serdemetan + OSI-027 = compound: c1ccc2c(CCNc3ccc(Nc4ccncc4)cc3)c[nH]c2c1 [Serdemetan] + COc1cccc2cc(-c3nc([C@H]4CC[C@H](C(=O)O)CC4)n4ncnc(N)c34)[nH]c12 [OSI-027] (partner 0.5 µM)
Method in brief: as §1

Cell Line	relative viability (Selisistat + Olaparib; first compound 0.4 µM)	relative viability (Selisistat + Olaparib; first compound 1.265 µM)	relative viability (Selisistat + Olaparib; first compound 4 µM)	relative viability (Selisistat + Olaparib; first compound 12.65 µM)	relative viability (Selisistat + Olaparib; first compound 40 µM)	relative viability (Serdemetan + Trametinib; first compound 0.04 µM)	relative viability (Serdemetan + Trametinib; first compound 0.1265 µM)	relative viability (Serdemetan + Trametinib; first compound 0.4 µM)	relative viability (Serdemetan + Trametinib; first compound 1.265 µM)	relative viability (Serdemetan + Trametinib; first compound 4 µM)	relative viability (Serdemetan + Crizotinib; first compound 0.04 µM)	relative viability (Serdemetan + Crizotinib; first compound 0.1265 µM)	relative viability (Serdemetan + Crizotinib; first compound 0.4 µM)	relative viability (Serdemetan + Crizotinib; first compound 4 µM)	relative viability (Serdemetan + OSI-027; first compound 0.04 µM)	relative viability (Serdemetan + OSI-027; first compound 0.1265 µM)	relative viability (Serdemetan + OSI-027; first compound 0.4 µM)	relative viability (Serdemetan + OSI-027; first compound 1.265 µM)	relative viability (Serdemetan + OSI-027; first compound 4 µM)	relative viability (Serdemetan + Crizotinib; first compound 1.265 µM)
NCI-H1944	0.431	0.381	0.335	0.357	0.413	0.424	0.39	0.332	0.274	0.278	0.973	1.02	0.904	0.419	0.435	0.42	0.394	0.331	0.379	
LU99A	0.24	0.248	0.307	0.255	0.251	0.574	0.453	0.483	0.277	0.224	0.521	0.529	0.317	0.17	0.282	0.313	0.275	0.216	0.29	0.187
SW 1573	0.4	0.462	0.505	0.639	0.505	0.595	0.6	0.465	0.412	0.256	0.851	0.702	0.761	0.207	0.749	0.705	0.716	0.439	0.289	0.385
NCI-H2347	0.719	0.622		0.605	0.621	0.286	0.253	0.289	0.259	0.25	0.673	0.699	0.674	0.0688	0.412	0.501	0.431	0.4	0.258	0.506
NCI-H2009	0.763	0.683	0.838	0.743	0.672	0.248	0.284	0.243	0.266	0.281	1	0.966	0.912	0.956	0.653	0.678	0.628	0.55	0.466	0.803
HCC-15	0.822	0.712	0.855	0.675	0.743	0.402	0.397	0.361	0.334	0.317	0.795	0.852	0.743	0.58	0.643	0.75	0.624	0.452	0.522	0.584
HCC-44	0.992	1.01	1.01	1.02	1.18	1.08	1.05	0.968	0.964	0.837	0.766	0.828	0.71	0.599	0.482	0.498	0.598	0.429	0.452	0.54
COR-L23	0.409	0.331	0.406	0.367	0.335	0.616	0.606	0.617	0.502	0.449	0.679	0.578	0.771	0.564	0.796	0.712	0.799	0.658	0.744	0.589
HCC-78	0.893	0.795	0.82	0.833	0.88	0.725	0.731	0.796	0.688	0.552	0.342	0.325	0.322	0.322	0.401	0.297	0.321	0.308	0.289	0.321
NCI-H727	0.737	0.635	0.631	0.655	0.687	0.376	0.37	0.367	0.382	0.33	1.01	0.638	0.665	0.439	0.69	0.681	0.567	0.466	0.499	0.427
NCI-H2087	0.748	0.684		0.573	0.553	0.223	0.185	0.191	0.168	0.169	1.14	0.746	0.699	0.487	0.548	0.641	0.573	0.324	0.241	0.426
BEN	1.08	1.03	1.06	1.06	1.04	0.944	0.853	1.06	1.03	0.794	0.826	0.864	0.944	0.64	0.307	0.292	0.272		0.286	0.759
LCLC-103H	0.814	0.798	0.78	0.724	0.833	0.686	0.671	0.684	0.538	0.638	0.977	1.12	0.979	0.995	0.431	0.551	0.479	0.537	0.406	0.94
EKVX	0.872	0.886	0.752	0.869	0.818	0.45	0.396			0.268	0.899	0.894	0.913	0.98	0.731	0.708	0.671		0.588	0.897
LXF-289	1.1	1.03	0.96	0.966	1.04	0.638	0.624	0.652	0.621	0.503	0.754	0.776	0.719	0.689	0.802	0.847	0.811	0.691	0.729	0.637
NCI-H650	0.51	0.379	0.496	0.382	0.3	0.891	0.937	0.986	0.903	0.612	0.549	0.735	0.636	0.566	0.471	0.502	0.578	0.456	0.584	0.723
NCI-H1650	0.933	0.863	0.86	0.852	0.702	0.58	0.633	0.49	0.611	0.516	0.914	1.09	0.927	0.879	0.664	0.701	0.412	0.532	0.473	0.944

Cell Line	relative viability (Selisistat + Olaparib; first compound 0.4 µM)	relative viability (Selisistat + Olaparib; first compound 1.265 µM)	relative viability (Selisistat + Olaparib; first compound 4 µM)	relative viability (Selisistat + Olaparib; first compound 12.65 µM)	relative viability (Selisistat + Olaparib; first compound 40 µM)	relative viability (Serdemetan + Trametinib; first compound 0.04 µM)	relative viability (Serdemetan + Trametinib; first compound 0.1265 µM)	relative viability (Serdemetan + Trametinib; first compound 0.4 µM)	relative viability (Serdemetan + Trametinib; first compound 1.265 µM)	relative viability (Serdemetan + Trametinib; first compound 4 µM)	relative viability (Serdemetan + Crizotinib; first compound 0.04 µM)	relative viability (Serdemetan + Crizotinib; first compound 0.1265 µM)	relative viability (Serdemetan + Crizotinib; first compound 0.4 µM)	relative viability (Serdemetan + Crizotinib; first compound 4 µM)	relative viability (Serdemetan + OSI-027; first compound 0.04 µM)	relative viability (Serdemetan + OSI-027; first compound 0.1265 µM)	relative viability (Serdemetan + OSI-027; first compound 0.4 µM)	relative viability (Serdemetan + OSI-027; first compound 1.265 µM)	relative viability (Serdemetan + OSI-027; first compound 4 µM)	relative viability (Serdemetan + Crizotinib; first compound 1.265 µM)
NCI-H2085	0.818	0.771	0.766	0.824	0.855	0.467	0.552	0.289	0.264	0.301	0.688	0.817	0.733	0.561	0.701	0.702	0.593	0.61	0.764	0.627
LC-2-ad	0.801	0.69	0.717	0.633	0.71	0.86	0.909	0.884	0.86	0.705	0.455	0.429	0.39	0.407	0.716	0.85	0.877	0.659	0.763	0.394
COR-L 105	0.703	0.67	0.815	0.659	0.576	0.435	0.482	0.366	0.487	0.491	0.729	0.716	0.709	0.838	0.749	0.649	0.452	0.722	0.71	0.874
NCI-H1355	0.796	0.775	0.664	0.735	0.813	0.411	0.478	0.367	0.394	0.374	0.97	1	1.02	0.781	0.465	0.452	0.35	0.35	0.382	1.06
H3255	0.505	0.538	0.571	0.549	0.539	0.618	0.561		0.464	0.516	0.723	0.836	0.811	0.853	0.587	0.675	0.613	0.573	0.518	0.746
NCI-H1993	1.06	1.07		1.15	1.03	0.549	0.516	0.413	0.599	0.494	0.951	0.944	0.86	0.734	0.552	0.614	0.665	0.521	0.533	
NCI-H1734	0.667	0.553	0.731	0.583	0.658	0.555	0.358	0.246	0.147	0.161	0.61		0.196	0.155	0.586	0.523	0.554	0.138	0.196	0.144
HOP-62	0.394	0.422	0.419	0.432	0.73	0.353	0.319	0.343	0.314	0.28	0.719	0.995	0.684	0.494	0.869	0.842	0.856	0.71	0.758	0.857
LOU-NH91	0.936	0.867	0.914	0.895	0.899	0.782	0.798			0.839	0.733	0.738		0.699	0.703	0.681	0.456	0.692	0.784	0.719
ChaGo-K-1	0.439	0.409	0.438	0.351	0.388	0.875	0.805	0.602	0.266	0.293		1.11	1.11	0.43	0.546	0.611	0.539	0.33	0.367	0.714
NCI-H2228	0.637	0.656	0.523	0.741	0.702	0.564	0.523	0.327	0.115	0.172	0.466	0.284	0.591	0.287	0.526	0.523	0.464	0.17	0.221	0.237
PC-14	0.252	0.201	0.186	0.204	0.29	0.798	0.747		0.647	0.601	0.899	0.87	0.793	0.745	0.843	0.767	0.139	0.759	0.514	0.649
NCI-H1437	0.599	0.615	0.618	0.565	0.544	0.466	0.527	0.526	0.372	0.424	0.835	1.03	0.786	0.8	0.872	0.865	0.868	0.585	0.729	0.778
NCI-H460	0.452	0.404		0.319	0.403	0.0926	0.172	0.134	0.0472	0.0554	0.842	0.866	0.836	0.075	0.61	0.691	0.641	0.342	0.0861	0.154
NCI-H1666	0.798	0.763	0.745	0.811	0.631	0.887	0.854	0.836		0.672	1.01	0.981	0.907	0.836	0.898	0.887	0.847	0.667	0.771	0.663
NCI-H1651	0.197	0.168	0.215	0.183	0.21	0.848	0.784	0.775	0.433	0.256	0.82	0.79	0.793	0.356	0.627	0.571	0.777	0.369	0.313	0.462
